# Data: the OligoGym collection
# Where “and” joins values, the source holds several entries; their conditions need not be identical. Identical values can stand only once. HELM strings list units from the 5' end as sugar, base in round brackets, then linkage (d deoxyribose, r ribose, m 2'-O-methyl, p phosphodiester). Strings are as the collection lists them, not checked against the first reports. ss, as = sense and antisense strand; [lna] = locked nucleic acid (LNA); [fl2r] = 2'-fluoro
# Conditions: siRNA
# Note: test system not given here.
row,Substance,target mRNA knockdown
1,RNA1{r(C)p.r(U)p.r(C)p.r(C)p.r(C)p.r(C)p.r(A)p.r(G)p.r(U)p.r(C)p.r(U)p.r(C)p.r(U)p.r(C)p.r(U)p.r(U)p.m(A)p.r(A)p.r(A)p.r(T)p.r(T)}|RNA2{r(U)p.r(U)p.r(U)p.m(A)p.r(A)p.r(G)p.r(A)p.r(G)p.r(A)p.r(G)p.r(A)p.r(C)p.r(U)p.r(G)p.r(G)p.r(G)p.r(G)p.r(A)p.r(G)p.r(T)p.r(T)}$$$RNA1{StrandType:ss}|RNA2{StrandType:as}$,69%
2,RNA1{r(C)p.r(U)p.r(C)p.r(C)p.r(G)p.r(A)p.m(C)p.m(A)p.r(G)p.r(A)p.m(U)p.r(G)p.r(A)p.r(A)p.r(G)p.r(G)p.r(A)p.r(A)p.r(A)p.r(T)p.r(T)}|RNA2{r(U)p.r(U)p.r(U)p.r(C)p.r(C)p.r(U)p.r(U)p.m(C)p.r(A)p.r(U)p.r(C)p.m(U)p.m(G)p.r(U)p.r(C)p.r(G)p.r(G)p.r(A)p.r(G)p.r(T)p.r(T)}$$$RNA1{StrandType:ss}|RNA2{StrandType:as}$,70%
3,RNA1{r(C)p.r(U)p.r(C)p.r(C)p.r(G)p.r(A)p.r(C)p.r(A)p.r(G)p.r(A)p.m(U)p.r(G)p.r(A)p.r(A)p.r(G)p.r(G)p.r(A)p.r(A)p.r(A)p.r(T)p.r(T)}|RNA2{r(U)p.r(U)p.r(U)p.r(C)p.r(C)p.r(U)p.r(U)p.r(C)p.r(A)p.r(U)p.r(C)p.m(U)p.r(G)p.r(U)p.r(C)p.r(G)p.r(G)p.r(A)p.r(G)p.r(T)p.r(T)}$$$RNA1{StrandType:ss}|RNA2{StrandType:as}$,72%
4,RNA1{r(C)p.r(U)p.r(C)p.r(C)p.r(U)p.r(U)p.m(C)p.r(A)p.r(U)p.r(U)p.r(C)p.m(C)p.r(A)p.r(G)p.r(C)p.r(C)p.m(U)p.r(A)p.r(U)p.r(T)p.r(T)}|RNA2{r(A)p.m(U)p.r(A)p.r(G)p.r(G)p.r(C)p.m(U)p.r(G)p.r(G)p.r(A)p.r(A)p.m(U)p.r(G)p.r(A)p.r(A)p.r(G)p.r(G)p.r(A)p.r(G)p.r(T)p.r(T)}$$$RNA1{StrandType:ss}|RNA2{StrandType:as}$,78%
5,RNA1{r(C)p.r(U)p.r(C)p.r(C)p.r(U)p.r(U)p.r(C)p.r(A)p.r(U)p.r(U)p.r(C)p.r(C)p.r(A)p.r(G)p.r(C)p.r(C)p.m(U)p.r(A)p.r(U)p.r(T)p.r(T)}|RNA2{r(A)p.m(U)p.r(A)p.r(G)p.r(G)p.r(C)p.r(U)p.r(G)p.r(G)p.r(A)p.r(A)p.r(U)p.r(G)p.r(A)p.r(A)p.r(G)p.r(G)p.r(A)p.r(G)p.r(T)p.r(T)}$$$RNA1{StrandType:ss}|RNA2{StrandType:as}$,81%
6,RNA1{r(C)p.r(U)p.r(C)p.r(U)p.r(C)p.r(C)p.[fl2r](U)p.r(A)p.r(C)p.r(C)p.r(U)p.[fl2r](U)p.r(C)p.r(U)p.r(C)p.r(C)p.[fl2r](U)p.r(C)p.r(U)p.r(T)p.r(T)}|RNA2{r(A)p.r(G)p.r(A)p.r(G)p.r(G)p.r(A)p.r(G)p.r(A)p.r(A)p.r(G)p.r(G)p.[fl2r](U)p.r(A)p.r(G)p.r(G)p.r(A)p.r(G)p.r(A)p.r(G)p.r(T)p.r(T)}$$$RNA1{StrandType:ss}|RNA2{StrandType:as}$,73%
7,RNA1{r(C)p.r(U)p.r(C)p.r(U)p.r(C)p.r(C)p.r(U)p.[fl2r](A)p.r(C)p.r(C)p.r(U)p.r(U)p.r(C)p.r(U)p.r(C)p.r(C)p.r(U)p.r(C)p.r(U)p.r(T)p.r(T)}|RNA2{r(A)p.r(G)p.r(A)p.r(G)p.r(G)p.r(A)p.r(G)p.r(A)p.r(A)p.r(G)p.r(G)p.r(U)p.r(A)p.r(G)p.r(G)p.r(A)p.r(G)p.r(A)p.r(G)p.r(T)p.r(T)}$$$RNA1{StrandType:ss}|RNA2{StrandType:as}$,78%
8,RNA1{r(C)p.r(U)p.r(C)p.r(U)p.r(G)p.r(G)p.r(C)p.r(C)p.r(U)p.r(U)p.r(U)p.r(C)p.r(U)p.r(C)p.r(U)p.r(C)p.m(U)p.r(A)p.r(G)p.r(T)p.r(T)}|RNA2{r(C)p.r(U)p.r(A)p.r(G)p.r(A)p.r(G)p.r(A)p.r(G)p.r(A)p.r(A)p.r(A)p.r(G)p.r(G)p.r(C)p.r(C)p.r(A)p.r(G)p.r(A)p.r(G)p.r(T)p.r(T)}$$$RNA1{StrandType:ss}|RNA2{StrandType:as}$,47%
9,RNA1{r(C)p.r(U)p.r(G)p.r(A)p.r(C)p.r(C)p.r(G)p.r(G)p.r(A)p.r(A)p.r(G)p.r(C)p.r(G)p.r(C)p.r(U)p.m(U)p.r(A)p.r(A)p.r(A)p.r(T)p.r(T)}|RNA2{r(U)p.r(U)p.m(U)p.r(A)p.r(A)p.r(G)p.r(C)p.r(G)p.r(C)p.r(U)p.r(U)p.r(C)p.r(C)p.r(G)p.r(G)p.r(U)p.r(C)p.r(A)p.r(G)p.r(T)p.r(T)}$$$RNA1{StrandType:ss}|RNA2{StrandType:as}$,86%
10,RNA1{r(C)p.r(U)p.r(G)p.r(G)p.r(U)p.r(A)p.r(A)p.r(A)p.r(G)p.r(C)p.r(A)p.r(U)p.r(U)p.r(C)p.r(A)p.r(G)p.r(U)p.r(A)p.r(U)p.d(T)p.d(T)}|RNA2{r(A)p.r(U)p.r(A)p.r(C)p.r(U)p.r(G)p.r(A)p.r(A)p.r(U)p.r(G)p.r(C)p.r(U)p.r(U)p.r(U)p.r(A)p.r(C)p.r(C)p.r(A)p.r(G)p.d(T)p.d(T)}$$$RNA1{StrandType:ss}|RNA2{StrandType:as}$,82%
11,RNA1{r(C)p.r(U)p.r(U)p.r(A)p.r(C)p.r(G)p.r(C)p.r(U)p.r(C)p.r(U)p.r(G)p.r(U)p.r(A)p.r(C)p.r(U)p.r(U)p.r(C)p.r(G)p.r(A)p.d(T)p.d(T)}|RNA2{r(U)p.r(C)p.r(G)p.r(A)p.r(A)p.r(G)p.r(U)p.r(A)p.r(C)p.r(U)p.r(C)p.r(A)p.r(G)p.r(C)p.r(G)p.r(U)p.r(A)p.r(A)p.r(G)p.d(T)p.d(T)}$$$RNA1{StrandType:ss}|RNA2{StrandType:as}$,92% and 94%
12,RNA1{r(C)p.r(U)p.r(U)p.r(A)p.r(C)p.r(G)p.r(C)p.r(U)p.r(G)p.r(A)p.r(G)p.r(U)p.r(A)p.r(C)p.r(U)p.r(U)p.r(C)p.r(G)p.r(A)p.[lna](T)p.[lna](T)}|RNA2{[lna](T)p.r(C)p.r(G)p.r(A)p.r(A)p.r(G)p.r(U)p.r(A)p.r(C)p.r(U)p.r(C)p.r(A)p.r(G)p.r(C)p.r(G)p.r(U)p.r(A)p.r(A)p.r(G)p.[lna](T)p.[lna](T)}$$$RNA1{StrandType:ss}|RNA2{StrandType:as}$,27%
13,RNA1{r(C)p.r(U)p.r(U)p.r(A)p.r(C)p.r(G)p.r(C)p.r(U)p.r(G)p.r(A)p.r(G)p.r(U)p.r(A)p.r(C)p.r(U)p.r(U)p.r(C)p.r(G)p.r(A)p.[lna](T)p.[lna](T)}|RNA2{r(U)p.r(C)p.r(G)p.r(A)p.r(A)p.r(G)p.r(U)p.r(A)p.r(C)p.r(U)p.r(C)p.r(A)p.r(G)p.r(C)p.r(G)p.r(U)p.r(A)p.r(A)p.r(G)p.[lna](T)p.[lna](T)}$$$RNA1{StrandType:ss}|RNA2{StrandType:as}$,93% and 92%
14,RNA1{r(C)p.r(U)p.r(U)p.r(A)p.r(C)p.r(G)p.r(C)p.r(U)p.r(G)p.r(A)p.r(G)p.r(U)p.r(A)p.r(C)p.r(U)p.r(U)p.r(C)p.r(G)p.r(A)p.[lna](T)p.[lna](T)}|RNA2{r(U)p.r(C)p.r(G)p.r(A)p.r(A)p.r(G)p.r(U)p.r(A)p.r(C)p.r(U)p.r(C)p.r(A)p.r(G)p.r(C)p.r(G)p.r(U)p.r(A)p.r(A)p.r(G)p.d(T)p.d(T)}$$$RNA1{StrandType:ss}|RNA2{StrandType:as}$,96%
